Measurements as given in US20250304608A1, “PHOSPHORUS COMPOUND AND USE THEREOF” (SHANGHAI SHIJIANG BIOTECHNOLOGY CO., LTD., priority 2022, published 2025).
pIC50: −log10 of the molar value.

Experiments:
Format in all cases: cell-based
mPTP-inactive Daoy cell = assay: CellTiter-Glo cell viability inhibition, mPTP-inactive Daoy cell; conditions: Homo sapiens, Daoy cell transfected with PPIF shRNA vector
mPTP-active Daoy cell = assay: CellTiter-Glo cell viability inhibition, mPTP-active Daoy cell; conditions: Homo sapiens; Daoy cell transfected with empty virus vector; CellTiter-Glo; read-out: mPTP-active Daoy cell (IC50)
Con-NCI-H82 cell = assay: CellTiter-Glo cell viability inhibition, Con-NCI-H82 cell; conditions: Homo sapiens, NCI-H82 cell transfected with empty virus vector
From the text: (§1) The expression of NNMT protein in NCI-H82 cell was overexpressed by inserting the NNMT gene into NCI-H82 cell using a viral vector, and the NNMT protein-overexpressing NCI-H82 cell (ov-NNMT NCI-H82 cell) was obtained. The control NCI-H82 cell (Con-NCI-H82 cell) was obtained by transfecting NCI-H82 cell with empty virus vector without carrying NNMT gene. The expressing content of NNMT protein in the Con-NCI-H82 cell and ov-NNMT NCI-H82 cell was detected using Western Blot assay (as shown in FIG. 3), it could be seen from FIG. 3 that the NNMT protein was overexpressed in the ov-NNMT NCI-H82 cell compared with the expression level of NNMT protein in the Con-NCI-H82 cell.

ov-NNMT NCI-H82 cell = assay: CellTiter-Glo cell viability inhibition, ov-NNMT NCI-H82 cell; conditions: Homo sapiens, NCI-H82 cell overexpressing NNMT protein
From the text: as §1

IC50 (Con-NCI-H82 cell)	IC50 (ov-NNMT NCI-H82 cell)	Structure (SMILES)	pIC50 (mPTP-inactive Daoy cell)	pIC50 (mPTP-active Daoy cell)
0.28 µM	1.95 µM	c1ccc([P+](c2ccccc2)(c2cccc3[nH]ccc23)c2cccc3[nH]cnc23)cc1 [AB35572]	5.48	4.99
0.14 µM	1.37 µM	Cn1ccc2c([P+](c3ccccc3)(c3ccccc3)c3ccccc3)cccc21 [AB35573]	6.62	5.90
0.41 µM	2.56 µM	Cn1cc2c([P+](c3ccccc3)(c3ccccc3)c3cccc4c3ccn4C)cccc2n1 [AB35574]	5.61	5.08
0.51 µM	2.93 µM	c1ccc([P+](c2ccccc2)(c2ccccc2)c2ccc3c(ccn3CCN3CCOCC3)c2)cc1 [AB35576]	6.34	5.80
1.08 µM	4.54 µM	Cn1ccc2c([P+](c3ccccc3)(c3ccccc3)c3cccc4[nH]ncc34)cccc21 [AB35577]	5.92	5.41
1.27 µM	4.93 µM	Cn1ccc2c([P+](c3ccccc3)(c3ccccc3)c3cccc4c3cnn4C)cccc21 [AB35578]	5.84	5.42
0.51 µM	2.77 µM	c1ccc([P+](c2ccccc2)(c2ccccc2)c2cccc3c2ccn3CCN2CCCCC2)cc1 [AB35579]	6.57	5.92
0.55 µM	3.66 µM	c1ccc([P+](c2ccccc2)(c2ccc3[nH]ncc3c2)c2cccc3[nH]ccc23)cc1 [AB35580]	5.94	5.34
1.26 µM	4.81 µM	c1ccc([P+](c2ccccc2)(c2ccc3cn[nH]c3c2)c2cccc3[nH]ccc23)cc1 [AB35581]	5.76	5.27
0.24 µM	1.73 µM	c1ccc([P+](c2ccccc2)(c2ccc3[nH]ccc3n2)c2cccc3[nH]ccc23)cc1 [AB35584]	6.34	5.87
0.52 µM	3.34 µM	c1ccc([P+](c2ccccc2)(c2ccccc2)c2cccc3c2ccn3CCN2CCOCC2)cc1 [AB35585]	5.91	5.45
0.21 µM	1.78 µM	c1ccc([P+](c2ccccc2)(c2cc3cc[nH]c3cn2)c2cccc3[nH]ccc23)cc1 [AB35588]	6.42	5.94
0.32 µM	2.34 µM	c1ccc([P+](c2ccccc2)(c2ccc3cc[nH]c3n2)c2cccc3[nH]ccc23)cc1 [AB35589]	6.44	5.82
0.25 µM	1.56 µM	COc1ccc([P+](c2ccc(OC)cc2)(c2cccc3[nH]ccc23)c2cccc3[nH]ccc23)cc1 [AB35596]	6.60	5.88
0.18 µM	1.85 µM	c1ccc([P+](c2ccccc2)(c2ccc3[nH]ccc3c2)c2ccc3[nH]ccc3n2)cc1 [AB35597]	6.62	5.93
0.98 µM	3.72 µM	c1ccc([P+](c2ccccc2)(c2ccc3[nH]ccc3c2)c2cc3[nH]ccc3cn2)cc1 [AB36405]	5.72	5.26
0.24 µM	1.55 µM	COc1ccc([P+](c2ccc(OC)cc2)(c2cccc3c2ccn3C)c2ccnc3c2ccn3C)cc1 [AB36407]	6.62	5.95

Second part, the compound before the results:

Structure (SMILES)	IC50 (Con-NCI-H82 cell)	IC50 (ov-NNMT NCI-H82 cell)	pIC50 (mPTP-inactive Daoy cell)	pIC50 (mPTP-active Daoy cell)
c1ccc([P+](c2ccccc2)(c2cccc3[nH]ccc23)c2cccc3[nH]ccc23)cc1 [AB35419]	0.05 µM	0.56 µM	6.82	6.13
c1ccc([P+](c2ccccc2)(c2ccccc2)c2ccc3cc[nH]c3c2)cc1 [AB35431]	0.32 µM	1.03 µM	6.19	5.70
c1ccc([P+](c2ccccc2)(c2ccc3cc[nH]c3c2)c2ccc3cc[nH]c3c2)cc1 [AB35437]	0.27 µM	1.21 µM	6.52	6.04
c1ccc([P+](c2ccccc2)(c2ccccc2)c2cccc3cc[nH]c23)cc1 [AB35449]	2.17 µM	6.47 µM	5.61	5.15
c1ccc([P+](c2ccccc2)(c2ccccc2)c2cccc3[nH]ccc23)cc1 [AB35450]	0.23 µM	1.56 µM	7.00	6.37
c1ccc([P+](c2ccccc2)(c2ccc3[nH]ccc3c2)c2ccc3[nH]ccc3c2)cc1 [AB35451]	0.13 µM	0.96 µM	6.55	5.91
c1ccc([P+](c2ccccc2)(c2cccc3[nH]ccc23)c2cncc3[nH]ccc23)cc1 [AB35452]	0.63 µM	2.34 µM	6.09	5.27
c1ccc([P+](c2ccccc2)(c2cccc3cc[nH]c23)c2cccc3cc[nH]c23)cc1 [AB35462]	6.48 µM	20.6 µM	4.90	4.54
c1ccc([P+](c2ccccc2)(c2cccc3[nH]ccc23)c2ccnc3[nH]ccc23)cc1 [AB35471]	0.34 µM	2.16 µM	6.09	5.36
c1ccc([P+](c2ccccc2)(c2cccnc2)c2ccc3cc[nH]c3c2)cc1 [AB35472]	8.11 µM	19.4 µM	4.97	4.42
c1ccc([P+](c2ccccc2)(c2cccnc2)c2ccc3[nH]ccc3c2)cc1 [AB35473]	3.27 µM	12.3 µM	5.53	4.74
c1ccc([P+](c2ccccc2)(c2ccncc2)c2cccc3[nH]ccc23)cc1 [AB35474]	3.66 µM	13.6 µM	5.61	4.74
c1ccc([P+](c2ccccc2)(c2cncc3[nH]ccc23)c2cncc3[nH]ccc23)cc1 [AB35477]	25.3 µM	> 50 µM	4.99	4.62
c1ccc([P+](c2ccccc2)(c2ccncc2)c2ccc3cc[nH]c3c2)cc1 [AB35479]	6.36 µM	25.5 µM	5.19	4.60
c1ccc([P+](c2ccccc2)(c2cccc3[nH]ncc23)c2cccc3[nH]ncc23)cc1 [AB35480]	13.8 µM	40.1 µM	5.20	< 4.30
c1ccc([P+](c2ccccc2)(c2ccccc2)c2cccc3[nH]ncc23)cc1 [AB35481]	2.45 µM	9.82 µM	5.60	4.78
c1ccc([P+](c2ccccc2)(c2cccc3[nH]ccc23)c2cccc3[nH]ncc23)cc1 [AB35482]	0.41 µM	2.13 µM	6.21	5.40
c1ccc([P+](c2ccccc2)(c2ccc3cc[nH]c3c2)c2ccccn2)cc1 [AB35507]	0.78 µM	3.96 µM	5.76	5.39
COc1ccc([P+](c2ccc(OC)cc2)(c2ccc(OC)cc2)c2cccc3[nH]ccc23)cc1 [AB35527]	0.36 µM	1.45 µM	6.60	5.92
c1ccc([P+](c2ccccc2)(c2ccc3[nH]ccc3c2)c2ccc3[nH]ncc3c2)cc1 [AB35529]	0.38 µM	1.87 µM	6.06	5.39
c1ccc([P+](c2ccccc2)(c2ccc3[nH]ccc3c2)c2cnc3[nH]ccc3c2)cc1 [AB35537]	0.51 µM	2.33 µM	6.10	5.65
c1ccc([P+](c2ccccc2)(c2ccc3cc[nH]c3c2)c2ccc3cn[nH]c3c2)cc1 [AB35538]	0.97 µM	3.86 µM	5.77	5.23
c1ccc([P+](c2ccccc2)(c2ccc3[nH]ccc3c2)c2ccc3[nH]cnc3c2)cc1 [AB35539]	1.55 µM	6.03 µM	5.41	4.91
c1ccc([P+](c2ccccc2)(c2ccc3cc[nH]c3c2)c2ccc3nc[nH]c3c2)cc1 [AB35548]	2.22 µM	7.14 µM	5.58	5.09
c1ccc([P+](c2ccccc2)(c2ccc3cc[nH]c3c2)c2cnc3cc[nH]c3c2)cc1 [AB35549]	3.18 µM	9.57 µM	5.41	4.98
c1ccc([P+](c2ccccc2)(c2cnc3[nH]ccc3c2)c2cccc3[nH]ccc23)cc1 [AB35563]	0.46 µM	2.09 µM	6.25	5.82
Cn1ccc2c([P+](c3ccccc3)(c3ccccc3)c3cccc4[nH]ccc34)cccc21 [AB35564]	0.13 µM	1.32 µM	7.30	6.41
c1ccc([P+](c2ccccc2)(c2ccc3[nH]cnc3c2)c2cccc3[nH]ccc23)cc1 [AB35569]	1.66 µM	5.34 µM	5.63	4.91
c1ccc([P+](c2ccccc2)(c2cnc3cc[nH]c3c2)c2cccc3[nH]ccc23)cc1 [AB35570]	3.34 µM	11.8 µM	5.40	4.81
Cn1ccc2cc([P+](c3ccccc3)(c3ccccc3)c3ccccc3)ccc21 [AB35571]	0.19 µM	1.43 µM	6.57	5.86
